“And” between values parts separate entries of the source, which are not always exact repeats. Equal entries are not always repeated.
Assays:
[1] = test system: HCT116 cells; assay: CCK-8 cell proliferation assay, HCT116; assay type: cell-based; conditions: Homo sapiens, HCT-116; CCK-8, 72 h, ATM-normal cell line, three independent experiments; read-out: IC50 ± SD, HCT116
Procedure: (§1) A549, HCT116, NCI-H23, and LoVo cells were purchased from the Cell Resources Center of Shanghai Academy of Life Sciences, Shanghai, China. A549 cells were cultured in McCoy’s5A medium supplemented with 10% FBS (KeyGEN Biotech, Nanjing, China) and 1% penicillin/streptomycin (Gibco, 15070-063). HCT116 cells were cultured in IMDM medium supplemented with 10% FBS (KeyGEN Biotech, Nanjing, China) and 1% penicillin/streptomycin (Gibco, 15070-063). NCI-H23 cells were cultured in RPMI 1640 medium supplemented with 10% FBS (KeyGEN Biotech, Nanjing, China) and 1% penicillin/streptomycin (Gibco, 15070-063). LoVo cells were cultured in F12K medium supplemented with 10% FBS (KeyGEN Biotech, Nanjing, China) and 1% penicillin/streptomycin (Gibco, 15070-063). All cells were cultured in an incubator at 37 °C under a 5% CO2 atmosphere.
(§2) For the assay, 3000/well cells were planted into 96-well plates for 24 h and then treated with the indicated doses of drugs or controls for 72 h. Following the manufacturer’s instructions, cell proliferation/survival was measured using the CCK-8 (KeyGEN Biotech, Nanjing, China) assay and plotted via GraphPad 8.0.

[2] = test system: NCI-H23 cells; assay: CCK-8 cell proliferation assay, NCI-H23; assay type: cell-based; conditions: Homo sapiens, CCK-8, 72 h, ATM-deficient cell line, three independent experiments, read-out: IC50 ± SD, NCI-H23
Procedure: as §1, §2

[3] = test system: A549 cells; assay: CCK-8 cell proliferation assay, A549; assay type: cell-based; conditions: Homo sapiens, CCK-8, 72 h, ATM-normal cell line, three independent experiments, read-out: IC50 ± SD, A549
Procedure: as §1, §2

[4] = test system: LoVo xenografts; assay: LoVo tumor xenograft mouse model, antitumor efficacy and tolerability; assay type: in vivo
Procedure: Balb/c nude mice (18–22 g, female, 4 weeks old) were purchased from Hangzhou Medical College (Hangzhou, China). All mice were inoculated subcutaneously in the right flank with 5 × 10^6 LoVo cells to initiate tumor growth. When the mean tumor volume reached approximately 100 mm^3, all mice were randomly divided into 8 groups (n = 5 per group) based on body weight and volume. […] Cisplatin was administered twice a week at the indicated doses. Tumor size and animal weight were measured every 3 days. Tumor volume was calculated as tumor volume (cm^3) = (length × width^2)/2. Tumor inhibition rate (%) = (1 − mean tumor weight in the treatment group/mean tumor weight in the control group) × 100%. The results were obtained from 5 test mice (mean ± SD) and calculated using GraphPad 8.0 software.

[5] = test system: LoVo cells; assay: CCK-8 cell proliferation assay, LoVo; assay type: cell-based; conditions: Homo sapiens, CCK-8, 72 h, ATM-deficient cell line, three independent experiments, read-out: IC50 ± SD, LoVo
Procedure: as §1, §2

[6] = target: ATR (Homo sapiens, UniProt Q13535); assay: In vitro inhibitory activity against the ATR enzyme; assay type: biochemical; conditions: mean ± SD of two independent experiments; read-out: ATR IC50 ± SD
Chain of ATR (Q13535 whole entry): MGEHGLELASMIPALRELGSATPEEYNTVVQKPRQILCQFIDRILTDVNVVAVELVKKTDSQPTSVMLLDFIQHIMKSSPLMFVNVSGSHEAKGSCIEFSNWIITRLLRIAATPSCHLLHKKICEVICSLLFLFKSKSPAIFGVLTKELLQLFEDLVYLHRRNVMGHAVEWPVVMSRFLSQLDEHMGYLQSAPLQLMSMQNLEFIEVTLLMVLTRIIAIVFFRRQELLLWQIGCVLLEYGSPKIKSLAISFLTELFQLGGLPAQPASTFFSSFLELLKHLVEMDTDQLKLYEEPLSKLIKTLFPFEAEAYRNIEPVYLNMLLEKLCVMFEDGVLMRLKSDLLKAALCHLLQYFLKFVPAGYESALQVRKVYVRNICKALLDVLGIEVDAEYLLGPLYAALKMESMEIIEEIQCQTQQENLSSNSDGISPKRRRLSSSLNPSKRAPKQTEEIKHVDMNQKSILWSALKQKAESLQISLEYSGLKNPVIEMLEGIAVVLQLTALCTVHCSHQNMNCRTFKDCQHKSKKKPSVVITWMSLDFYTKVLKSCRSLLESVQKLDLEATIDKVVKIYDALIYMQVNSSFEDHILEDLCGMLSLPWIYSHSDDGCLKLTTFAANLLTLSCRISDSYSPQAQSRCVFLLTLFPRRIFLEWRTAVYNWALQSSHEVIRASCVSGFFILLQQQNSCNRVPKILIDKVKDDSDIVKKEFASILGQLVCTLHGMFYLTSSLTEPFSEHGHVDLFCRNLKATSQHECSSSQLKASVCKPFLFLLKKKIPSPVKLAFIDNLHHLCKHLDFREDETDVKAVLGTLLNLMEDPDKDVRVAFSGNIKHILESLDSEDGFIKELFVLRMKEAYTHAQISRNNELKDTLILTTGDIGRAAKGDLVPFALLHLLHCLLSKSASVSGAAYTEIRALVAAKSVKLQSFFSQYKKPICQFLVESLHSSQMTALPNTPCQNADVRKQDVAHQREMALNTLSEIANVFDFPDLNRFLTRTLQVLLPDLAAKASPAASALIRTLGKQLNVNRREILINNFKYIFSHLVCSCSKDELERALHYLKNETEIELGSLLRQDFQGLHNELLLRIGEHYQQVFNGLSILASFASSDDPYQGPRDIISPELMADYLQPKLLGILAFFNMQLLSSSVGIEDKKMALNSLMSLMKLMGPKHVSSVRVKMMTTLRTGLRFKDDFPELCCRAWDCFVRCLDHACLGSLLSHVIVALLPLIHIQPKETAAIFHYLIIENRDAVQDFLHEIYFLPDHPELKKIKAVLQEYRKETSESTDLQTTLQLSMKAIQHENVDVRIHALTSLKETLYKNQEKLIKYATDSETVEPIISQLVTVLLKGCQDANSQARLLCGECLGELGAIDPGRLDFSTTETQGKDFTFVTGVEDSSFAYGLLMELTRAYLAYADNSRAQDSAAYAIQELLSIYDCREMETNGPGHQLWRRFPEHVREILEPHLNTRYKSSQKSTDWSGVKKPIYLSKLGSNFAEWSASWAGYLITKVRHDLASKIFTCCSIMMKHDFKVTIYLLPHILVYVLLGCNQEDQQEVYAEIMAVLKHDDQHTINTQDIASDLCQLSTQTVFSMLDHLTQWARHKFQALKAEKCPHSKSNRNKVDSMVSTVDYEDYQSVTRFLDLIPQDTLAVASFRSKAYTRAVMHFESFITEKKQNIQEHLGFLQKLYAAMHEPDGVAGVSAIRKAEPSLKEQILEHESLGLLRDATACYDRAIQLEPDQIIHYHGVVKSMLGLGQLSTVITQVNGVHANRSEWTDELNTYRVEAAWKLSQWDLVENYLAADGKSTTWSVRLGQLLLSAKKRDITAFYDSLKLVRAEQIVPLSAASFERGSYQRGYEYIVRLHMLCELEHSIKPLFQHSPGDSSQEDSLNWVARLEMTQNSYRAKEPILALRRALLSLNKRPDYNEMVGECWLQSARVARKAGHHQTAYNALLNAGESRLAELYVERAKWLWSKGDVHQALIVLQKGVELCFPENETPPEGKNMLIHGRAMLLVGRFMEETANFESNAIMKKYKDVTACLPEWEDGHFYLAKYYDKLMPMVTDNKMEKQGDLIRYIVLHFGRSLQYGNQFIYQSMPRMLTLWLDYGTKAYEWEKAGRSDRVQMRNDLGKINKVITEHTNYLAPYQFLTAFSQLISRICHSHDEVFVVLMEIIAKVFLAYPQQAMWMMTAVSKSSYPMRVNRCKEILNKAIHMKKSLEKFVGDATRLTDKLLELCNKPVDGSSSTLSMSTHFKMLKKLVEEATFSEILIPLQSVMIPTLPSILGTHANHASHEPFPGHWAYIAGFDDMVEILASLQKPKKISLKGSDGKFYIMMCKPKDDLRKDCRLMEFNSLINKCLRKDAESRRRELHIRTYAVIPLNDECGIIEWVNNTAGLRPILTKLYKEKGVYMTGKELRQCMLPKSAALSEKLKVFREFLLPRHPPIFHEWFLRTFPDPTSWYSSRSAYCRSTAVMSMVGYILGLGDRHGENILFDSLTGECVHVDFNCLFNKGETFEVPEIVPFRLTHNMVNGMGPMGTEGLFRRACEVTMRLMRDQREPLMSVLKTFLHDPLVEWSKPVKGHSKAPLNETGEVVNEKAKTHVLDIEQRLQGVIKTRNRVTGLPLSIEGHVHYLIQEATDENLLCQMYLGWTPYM
Chain of ATR (Q8WXE1 whole entry partner): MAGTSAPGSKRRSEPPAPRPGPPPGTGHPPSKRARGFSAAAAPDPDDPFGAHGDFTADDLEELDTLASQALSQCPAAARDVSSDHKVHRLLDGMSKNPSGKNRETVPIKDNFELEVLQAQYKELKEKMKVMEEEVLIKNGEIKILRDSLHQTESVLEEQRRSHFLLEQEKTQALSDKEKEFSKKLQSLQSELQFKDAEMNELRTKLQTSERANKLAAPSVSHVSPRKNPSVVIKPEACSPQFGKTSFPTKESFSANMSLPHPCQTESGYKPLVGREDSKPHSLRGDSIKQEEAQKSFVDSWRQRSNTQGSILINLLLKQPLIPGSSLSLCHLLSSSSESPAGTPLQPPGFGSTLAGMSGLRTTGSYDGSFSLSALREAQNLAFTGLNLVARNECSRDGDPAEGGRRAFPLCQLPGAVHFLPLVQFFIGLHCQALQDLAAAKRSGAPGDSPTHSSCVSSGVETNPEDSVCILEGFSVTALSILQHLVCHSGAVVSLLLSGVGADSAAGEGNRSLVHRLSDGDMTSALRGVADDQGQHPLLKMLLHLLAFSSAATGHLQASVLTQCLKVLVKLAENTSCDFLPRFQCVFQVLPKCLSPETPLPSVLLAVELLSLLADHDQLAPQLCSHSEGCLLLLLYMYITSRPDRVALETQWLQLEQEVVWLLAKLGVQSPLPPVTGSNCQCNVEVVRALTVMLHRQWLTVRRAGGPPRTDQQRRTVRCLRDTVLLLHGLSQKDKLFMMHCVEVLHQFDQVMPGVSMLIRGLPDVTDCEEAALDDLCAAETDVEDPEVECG

SMILES	IC50 [6]	melting point	other results
C[C@@H]1COCCN1c1cc(C2([S@](C)(=N)=O)CC2)nc(-c2cc[nH]c3nccc2-3)n1 [AZD6738, ceralasertib, reference compound]			IC50 [1]: 4320 ± 160 nM; IC50 [2]: 500 ± 60 nM; IC50 [3]: 6600 ± 240 nM; tumor growth inhibition (TGI) ([4]; 25 mg/kg twice daily, days 1-18, single agent, AZD6738 orally, ZH-12 intraperitoneally): 42.5%; IC50 [5]: 410 ± 10 nM
CCS(=O)(=O)N1CCc2c(nc(-c3ccnc4[nH]ccc34)nc2N2CCOC[C@H]2C)C1 [ZH-1, (R)-4-(7-(ethylsulfonyl)-2-(1H-pyrrolo[2,3-b]pyridin-4-yl)-5,6,7,8-tetrahydropyrido[3,4-d]pyrimidin-4-yl)-3-methylmorpholine]	53.3 ± 1.08 nM		
CCC(=O)N1CCc2c(nc(-c3ccnc4[nH]ccc34)nc2N2CCOC[C@H]2C)C1 [ZH-2, (R)-1-(4-(3-methylmorpholino)-2-(1H-pyrrolo[2,3-b]pyridin-4-yl)-5,8-dihydropyrido[3,4-d]pyrimidin-7(6H)-yl)propan-1-one]	41.6 ± 1.38 nM		
COCC(=O)N1CCc2c(nc(-c3ccnc4[nH]ccc34)nc2N2CCOC[C@H]2C)C1 [ZH-7, (R)-2-methoxy-1-(4-(3-methylmorpholino)-2-(1H-pyrrolo[2,3-b]pyridinedin-4-yl)-5,8-dihydropyrido[3,4-d]pyrimidin-7(6H)-yl)ethan-1-one]	9.23 ± 0.16 nM	294 to 296 °C	IC50 [1]: 6020 ± 260 nM; IC50 [2]: 6770 ± 430 nM; IC50 [3]: 25600 ± 1620 nM; IC50 [5]: 5710 ± 810 nM
C[C@@H]1COCCN1c1nc(-c2ccnc3[nH]ccc23)nc2c1CCN(C(=O)C1CCOCC1)C2 [ZH-8, (R)-(4-(3-methylmorpholino)-2-(1H-pyrrolo[2,3-b]pyridin-4-yl)-5,8-dihydropyrido[3,4-d]pyrimidin-7(6H)-yl)(tetrahydro-2H-pyran-4-yl)methanone]	27.5 ± 1.04 nM		
C[C@@H]1COCCN1c1nc(-c2ccnc3[nH]ccc23)nc2c1CCN(C(=O)C1CC(=O)C1)C2 [ZH-9, (R)-3-(4-(3-methylmorpholino)-2-(1H-pyrrolo[2,3-b]pyridinedin-4-yl)-5,6,7,8-tetrahydropyrido[3,4-d]pyrimidine-7-carbonyl)cyclobutan-1-one]	16 ± 1.08 nM	222 to 224 °C	
C[C@@H]1COCCN1c1nc(-c2cccc3[nH]ccc23)nc2c1CCN(C(=O)C1CCOCC1)C2 [ZH-13, (R)-(2-(1H-indol-4-yl)-4-(3-methylmorpholino)-5,8-dihydropyrido[3,4-d]pyrimidin-7(6H)-yl)(tetrahydro-2H-pyran-4-yl)methanone]	214.66 ± 0.04 nM		
N.N.[Cl][Pt][Cl] [cisplatin, reference compound]			tumor growth inhibition (TGI) ([4]; cisplatin 6 mg/kg twice a week, alone): 26.1%

Continued, in another order:

IC50 [6]	melting point	SMILES	other results
42.5 ± 1.05 nM		CCCC(=O)N1CCc2c(nc(-c3ccnc4[nH]ccc34)nc2N2CCOC[C@H]2C)C1 [ZH-3, (R)-1-(4-(3-methylmorpholino)-2-(1H-pyrrolo[2,3-b]pyridin-4-yl)-5,8-dihydropyrido[3,4-d]pyrimidin-7(6H)-yl)butan-1-one]	
7.31 ± 0.16 nM		CC(C)CC(=O)N1CCc2c(nc(-c3ccnc4[nH]ccc34)nc2N2CCOC[C@H]2C)C1 [ZH-4, (R)-3-methyl-1-(4-(3-methylmorpholino)-2-(1H-pyrrolo[2,3-b]pyridin-4-yl)-5,8-dihydropyrido[3,4-d]pyrimidin-7(6H)-yl)butan-1-one]	IC50 [1]: 5170 ± 580 nM; IC50 [2]: 1740 ± 50 nM; IC50 [3]: 20800 ± 1210 nM; IC50 [5]: 18000 ± 1690 nM
11.3 nM and 10.8 nM	> 250 °C	C[C@@H]1COCCN1c1nc(-c2ccnc3[nH]ccc23)nc2c1CCN(C(=O)CC#N)C2 [ZH-5, (R)-3-(4-(3-methylmorpholino)-2-(1H-pyrrolo[2,3-b]pyridinedin-4-yl)-5,8-dihydropyrido[3,4-d]pyrimidin-7(6H)-yl)-3-oxopropanenitrile]	
34.03 ± 0.27 nM	174 to 176 °C	C[C@@H]1COCCN1c1nc(-c2ccnc3[nH]ccc23)nc2c1CCN(C(=O)CO)C2 [ZH-6, (R)-2-hydroxy-1-(4-(3-methylmorpholino)-2-(1H-pyrrolo[2,3-b]pyridinedin-4-yl)-5,8-dihydropyrido[3,4-d]pyrimidin-7(6H)-yl)ethan-1-one]	
27.5 nM and 11.9 nM	240 to 242 °C	C[C@@H]1COCCN1c1nc(-c2ccnc3[nH]ccc23)nc2c1CCN(C(=O)C1CCC(=O)CC1)C2 [ZH-10, (R)-4-(4-(3-methylmorpholino)-2-(1H-pyrrolo[2,3-b]pyridinedin-4-yl)-5,6,7,8-tetrahydropyrido[3,4-d]pyrimidine-7-carbonyl)cyclohexan-1-one]	
11.4 ± 0.25 nM		CCNC(=O)N1CCc2c(nc(-c3ccnc4[nH]ccc34)nc2N2CCOC[C@H]2C)C1 [ZH-11, (R)-N-ethyl-4-(3-methylmorpholino)-2-(1H-pyrrolo[2,3-b]pyridin-4-yl)-5,8-dihydropyrido[3,4-d]pyrimidine-7(6H)-carboxamide]	
14.9 ± 0.29 nM		CCNC(=O)N1CCc2c(nc(-c3cccc4[nH]ccc34)nc2N2CCOC[C@H]2C)C1 [ZH-14, (R)-N-ethyl-2-(1H-indol-4-yl)-4-(3-methylmorpholino)-5,8-dihydropyrido[3,4-d]pyrimidine-7(6H)-carboxamide]	

Source: publication PMC10254649, “Design, Synthesis, and Biological Evaluation of Potent and Selective Inhibitors of Ataxia Telangiectasia Mutated and Rad3-Related (ATR) Kinase for the Efficient Treatment of Cancer” (Molecules, 2023)
